Measurements: publication PMC12584752, “Covalent fragment screening to inhibit the E3 ligase activity of bacterial NEL enzymes SspH1 and SspH2” (RSC Chemical Biology, 2025)

How the values were obtained:
SspH1 (161–700) = SspH1 (161–700) (Salmonella typhimurium, UniProt D0ZVG2); test: E2–Ub discharge assay; type: biochemical; parameters: Recombinant IpaH9.8 (21–545) and SspH1 (161–700) were incubated at 0.5 μM; His-tag (N, cleaved yes); made in house; host or cells: E. coli BL21; conditions: SspH1 pre-labelled with compound overnight at RT; UbcH5A–Ub-cy3 1 μM, 0–30 minutes
SspH1 (161–700), sequence (D0ZVG2 161-700): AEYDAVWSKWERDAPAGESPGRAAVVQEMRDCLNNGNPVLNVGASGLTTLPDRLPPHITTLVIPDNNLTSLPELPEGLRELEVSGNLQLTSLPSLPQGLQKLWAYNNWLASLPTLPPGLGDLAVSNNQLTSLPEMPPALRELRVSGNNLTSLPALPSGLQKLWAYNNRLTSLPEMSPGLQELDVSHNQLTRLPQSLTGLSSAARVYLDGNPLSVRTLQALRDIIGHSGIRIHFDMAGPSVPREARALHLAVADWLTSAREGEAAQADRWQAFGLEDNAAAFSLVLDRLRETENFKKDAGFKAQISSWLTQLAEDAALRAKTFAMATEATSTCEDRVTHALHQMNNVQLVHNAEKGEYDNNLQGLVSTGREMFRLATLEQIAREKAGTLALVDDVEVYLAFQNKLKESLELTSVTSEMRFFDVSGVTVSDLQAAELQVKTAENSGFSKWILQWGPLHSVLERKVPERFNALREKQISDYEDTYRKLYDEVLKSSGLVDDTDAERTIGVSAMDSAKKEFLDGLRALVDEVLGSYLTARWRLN
Description: We next wanted to understand whether compounds 6 and 7 interfered with SspH1 E3 activity and turned to in vitro assays to assess E3 ligase activity. In the absence of substrate, NEL E3 ligases non-productively discharge ubiquitin from the E2–Ub thioester, a reaction that proceeds via an unstable E3-thioester intermediate.[27] This activity can be followed by E2–Ub discharge assays (Fig. 4A). We compared discharge activity of SspH1 with UbcH5A–Ub-cy3 (E2–Ub*) pre-treated with a DMSO control or compounds 6 or 7 (Fig. 4B). To ensure complete compound labelling, SspH1 was pre-incubated with the compounds overnight at room temperature, as opposed to at 4 °C which enabled us to study kinetics previously.
Fig. 4 SspH1 in vitro inhibition with compounds 6 and 7. (A) Discharge assay schematic; (B) E2–Ub discharge time course assay with SspH1 pre-treated with either DMSO or compounds 6 or 7. UbcH5A–Ub-cy3 (1 μM) was incubated at RT for 0–30 minutes with SspH1 (residues 161–700, 50 nM) which had been pre-labelled with 6 or 7 at RT overnight. (C) Substrate ubiquitination assay schematic; (D) PKN1 ubiquitination time course assay with SspH1 pre-treated with either DMSO or compounds 6 or 7. […]

glutathione = test: Glutathione reactivity assay; type: physicochemical; conditions: 6 mM glutathione in PBS, 40 °C; read-out: GSH t1/2 (converted)
Description: 10 mM DMSO stocks of compounds 6 and 7 were diluted 20-fold with acetonitrile, and then further 5-fold diluted with 6 mM glutathione in PBS. The reaction was shaken before incubation at 40 °C. The reaction mixture was analysed via UPLC-UV-MS up to eight times across 24 hours, compared to known reference compounds and samples of each compound in distilled water. UPLC conditions: flow rate: 800 μL min^−1; column: acquity UPLC BEH C18 1.7 μm 2.1 × 50 mm; column temperature: 37 °C; mobile phase A: 0.1% formic acid in H2O; mobile phase B: 0.1% formic acid in 100% ACN; run time: 2 minutes; gradient elution: 97% A to 0% A; UV conditions: 210 to 350 nm range; MS conditions: single quad, ESI+, scan range: 50–1000 Da. For each time point, the UV peak area of the parent peak was extracted at a single wavelength (e.g., 254 nm). A pseudo-first-order rate constant (k) for each compound was determined from the slope of a linear regression fit for a plot of the […] peak area of the parent compound versus the time differential for the eight time points; the t1/2 is calculated as follows: t1/2 = 0.693/k.

## Cl.O=C(CCl)N1CCC(n2c(-c3ccc(C(F)(F)F)cc3)nc3ccccc32)CC1 [compound 7]
SspH1 (161–700)
  SspH1 E2–Ub discharge activity: completely abrogated
glutathione
  half-life at 100 µM: 4 h

## Cc1cc(-c2nc3ccccc3n2C2CCN(C(=O)CCl)CC2)cc(C)c1O.Cl [compound 6]
SspH1 (161–700)
  SspH1 E2–Ub discharge activity: completely abrogated
glutathione
  half-life at 100 µM: 4.9 h
